Values quoted from earlier work as cited in patent US11865201B2, “Product for dyeing keratinous material, containing aminosilicone, a chromophoric compound and ethoxylated fatty acid ester” (Henkel AG & Co. KGaA, priority 2019, dated 2024).

Settings: 25° C.

solubility in water (in words)	SMILES	solubility in water
	CCN(Cc1cccc(S(=O)(=O)[O-])c1)c1ccc(C(=C2C=CC(=[N+](CC)Cc3cccc(S(=O)(=O)[O-])c3)C=C2)c2ccccc2S(=O)(=O)[O-])cc1.[Na+].[Na+] [Acid Blue 9]	more than 20 wt. %
	O=S(=O)([O-])c1ccc(N=Nc2c(O)ccc3ccccc23)cc1.[Na+] [Acid Orange 7, sodium salt of 4-[(2-hydroxy-1-naphthyl)azo]benzene sulphonate]	more than 7 g/L
	Nc1cc(S(=O)(=O)[O-])cc2cc(S(=O)(=O)[O-])c(N=Nc3ccccc3)c(O)c12.[Na+].[Na+] [Acid Red 33, diantrium salt of 5-amino-4-hydroxy-3-(phenylazo)-naphthalene-2,7-disulphonate]	2500 µg/mL
	O=C([O-])c1c(Cl)c(Cl)c(Cl)c(Cl)c1-c1c2c(Br)cc(=O)c(Br)c-2oc2c(Br)c(O)cc(Br)c12.O=C([O-])c1c(Cl)c(Cl)c(Cl)c(Cl)c1-c1c2c(Br)cc(=O)c(Br)c-2oc2c(Br)c(O)cc(Br)c12.[Na+].[Na+] [Acid Red 92, disodium salt of 3,4,5,6-tetrachloro-2-(1,4,5,8-tetrabromo-6-hydroxy-3-oxoxanthen-9-yl)benzoic acid]	greater than 10 g/L
highly soluble in water	O=C([O-])C1=NN(c2ccc(S(=O)(=O)[O-])cc2)C(=O)C1N=Nc1ccc(S(=O)(=O)[O-])cc1.[Na+].[Na+].[Na+] (centres unmarked) [Acid Yellow 23, trisodium salt of 4,5-dihydro-5-oxo-1-(4-sulfophenyl)-4-((4-sulfophenyl)azo)-1H-pyrazole-3-carboxylic acid]	
